Values of other authors in publication PMC9851200, “Multiparameter phenotypic screening for endogenous TFEB and TFE3 translocation identifies novel chemical series modulating lysosome function” (Autophagy, 2022).

Columns and labels:
Parameters in all cases: method as in original PKIS2 published data
[1] = target: kinases (KINOMEscan panel) (Homo sapiens, UniProt P21802); details: kinase FGFR2; Published KINOMEscan; ref original PKIS2 published data; cited from earlier work
[2] = target: T1, kinases (KINOMEscan panel) (Homo sapiens, UniProt Q6ZWH5); details: Published KINOMEscan; ref original PKIS2 published data; cited from earlier work
T1 sequence (Q6ZWH5 1-1172): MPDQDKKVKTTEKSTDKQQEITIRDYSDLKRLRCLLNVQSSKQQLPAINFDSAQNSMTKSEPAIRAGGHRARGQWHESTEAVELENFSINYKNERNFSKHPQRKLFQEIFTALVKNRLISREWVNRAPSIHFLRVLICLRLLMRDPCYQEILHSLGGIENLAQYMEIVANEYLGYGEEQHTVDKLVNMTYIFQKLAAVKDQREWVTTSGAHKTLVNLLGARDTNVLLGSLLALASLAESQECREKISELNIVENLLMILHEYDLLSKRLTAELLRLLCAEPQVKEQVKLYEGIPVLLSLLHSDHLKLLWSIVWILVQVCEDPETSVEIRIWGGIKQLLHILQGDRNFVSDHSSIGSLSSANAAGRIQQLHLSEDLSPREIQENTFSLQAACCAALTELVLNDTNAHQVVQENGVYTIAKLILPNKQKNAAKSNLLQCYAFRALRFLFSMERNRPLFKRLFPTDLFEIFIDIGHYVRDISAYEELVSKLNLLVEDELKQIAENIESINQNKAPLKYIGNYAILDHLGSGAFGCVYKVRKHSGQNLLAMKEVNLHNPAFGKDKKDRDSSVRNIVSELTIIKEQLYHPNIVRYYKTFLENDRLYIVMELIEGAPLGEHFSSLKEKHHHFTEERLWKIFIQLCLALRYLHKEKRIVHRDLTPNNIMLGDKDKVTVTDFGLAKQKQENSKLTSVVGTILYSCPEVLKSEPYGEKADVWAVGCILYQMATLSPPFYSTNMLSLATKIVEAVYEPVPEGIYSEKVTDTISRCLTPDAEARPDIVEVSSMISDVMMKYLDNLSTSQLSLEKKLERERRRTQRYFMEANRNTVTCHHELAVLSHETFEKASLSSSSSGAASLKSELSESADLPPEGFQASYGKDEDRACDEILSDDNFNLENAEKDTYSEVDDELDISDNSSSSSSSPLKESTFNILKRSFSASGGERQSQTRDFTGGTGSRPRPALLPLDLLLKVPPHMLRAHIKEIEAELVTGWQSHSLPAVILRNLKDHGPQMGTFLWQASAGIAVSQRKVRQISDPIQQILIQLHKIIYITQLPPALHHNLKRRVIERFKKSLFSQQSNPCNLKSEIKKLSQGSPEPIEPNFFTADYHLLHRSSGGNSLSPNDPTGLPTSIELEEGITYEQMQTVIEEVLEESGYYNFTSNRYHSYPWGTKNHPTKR

[3] = target: kinases (KINOMEscan panel) (Homo sapiens, UniProt P49761); details: CLK3; Published KINOMEscan; ref original PKIS2 published data; cited from earlier work
Chain of kinases (KINOMEscan panel) (Homo sapiens, UniProt P49761) (P49761 whole entry): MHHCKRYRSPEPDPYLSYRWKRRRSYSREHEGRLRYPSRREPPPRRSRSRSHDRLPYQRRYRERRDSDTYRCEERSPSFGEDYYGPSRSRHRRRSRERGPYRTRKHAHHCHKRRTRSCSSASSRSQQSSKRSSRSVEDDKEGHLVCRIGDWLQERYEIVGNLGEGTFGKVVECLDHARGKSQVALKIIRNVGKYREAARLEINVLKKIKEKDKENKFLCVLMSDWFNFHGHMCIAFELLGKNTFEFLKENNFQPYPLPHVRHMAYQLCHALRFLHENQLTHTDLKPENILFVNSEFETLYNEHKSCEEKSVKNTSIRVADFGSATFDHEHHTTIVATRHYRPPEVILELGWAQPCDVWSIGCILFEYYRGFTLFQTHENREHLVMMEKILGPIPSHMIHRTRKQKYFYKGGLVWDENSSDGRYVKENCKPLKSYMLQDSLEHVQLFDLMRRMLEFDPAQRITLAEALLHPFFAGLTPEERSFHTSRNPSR

[4] = target: T2, kinases (KINOMEscan panel) (Homo sapiens, UniProt Q9BXA7); details: kinase TSSK1B; Published KINOMEscan; ref original PKIS2 published data; cited from earlier work
T2 sequence (Q9BXA7 1-367): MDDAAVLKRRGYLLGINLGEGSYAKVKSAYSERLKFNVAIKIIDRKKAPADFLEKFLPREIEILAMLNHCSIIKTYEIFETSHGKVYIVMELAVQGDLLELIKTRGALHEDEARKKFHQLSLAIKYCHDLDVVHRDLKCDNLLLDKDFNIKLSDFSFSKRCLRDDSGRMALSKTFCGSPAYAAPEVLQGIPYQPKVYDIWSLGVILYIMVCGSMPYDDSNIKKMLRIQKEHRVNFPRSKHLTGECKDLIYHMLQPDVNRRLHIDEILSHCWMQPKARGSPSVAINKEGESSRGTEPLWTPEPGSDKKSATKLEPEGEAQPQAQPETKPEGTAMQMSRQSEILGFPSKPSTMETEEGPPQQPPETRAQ

[5] = target: kinases (KINOMEscan panel) (Homo sapiens, UniProt O75716); details: kinase STK16; Published KINOMEscan; ref original PKIS2 published data; cited from earlier work
Chain of kinases (KINOMEscan panel) (Homo sapiens, UniProt O75716) (O75716 whole entry): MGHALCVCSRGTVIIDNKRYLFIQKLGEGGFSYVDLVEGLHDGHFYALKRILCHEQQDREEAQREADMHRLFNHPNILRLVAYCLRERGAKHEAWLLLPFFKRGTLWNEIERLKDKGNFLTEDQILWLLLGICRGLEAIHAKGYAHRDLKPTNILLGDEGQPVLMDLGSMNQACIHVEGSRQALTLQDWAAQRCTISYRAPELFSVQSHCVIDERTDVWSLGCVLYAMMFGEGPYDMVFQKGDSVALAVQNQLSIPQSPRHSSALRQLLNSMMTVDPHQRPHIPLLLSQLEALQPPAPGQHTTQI

[6] = target: kinases (KINOMEscan panel) (Homo sapiens, UniProt P09619); details: Published KINOMEscan; ref original PKIS2 published data; cited from earlier work
Chain of kinases (KINOMEscan panel) (Homo sapiens, UniProt P09619) (P09619 33-1106): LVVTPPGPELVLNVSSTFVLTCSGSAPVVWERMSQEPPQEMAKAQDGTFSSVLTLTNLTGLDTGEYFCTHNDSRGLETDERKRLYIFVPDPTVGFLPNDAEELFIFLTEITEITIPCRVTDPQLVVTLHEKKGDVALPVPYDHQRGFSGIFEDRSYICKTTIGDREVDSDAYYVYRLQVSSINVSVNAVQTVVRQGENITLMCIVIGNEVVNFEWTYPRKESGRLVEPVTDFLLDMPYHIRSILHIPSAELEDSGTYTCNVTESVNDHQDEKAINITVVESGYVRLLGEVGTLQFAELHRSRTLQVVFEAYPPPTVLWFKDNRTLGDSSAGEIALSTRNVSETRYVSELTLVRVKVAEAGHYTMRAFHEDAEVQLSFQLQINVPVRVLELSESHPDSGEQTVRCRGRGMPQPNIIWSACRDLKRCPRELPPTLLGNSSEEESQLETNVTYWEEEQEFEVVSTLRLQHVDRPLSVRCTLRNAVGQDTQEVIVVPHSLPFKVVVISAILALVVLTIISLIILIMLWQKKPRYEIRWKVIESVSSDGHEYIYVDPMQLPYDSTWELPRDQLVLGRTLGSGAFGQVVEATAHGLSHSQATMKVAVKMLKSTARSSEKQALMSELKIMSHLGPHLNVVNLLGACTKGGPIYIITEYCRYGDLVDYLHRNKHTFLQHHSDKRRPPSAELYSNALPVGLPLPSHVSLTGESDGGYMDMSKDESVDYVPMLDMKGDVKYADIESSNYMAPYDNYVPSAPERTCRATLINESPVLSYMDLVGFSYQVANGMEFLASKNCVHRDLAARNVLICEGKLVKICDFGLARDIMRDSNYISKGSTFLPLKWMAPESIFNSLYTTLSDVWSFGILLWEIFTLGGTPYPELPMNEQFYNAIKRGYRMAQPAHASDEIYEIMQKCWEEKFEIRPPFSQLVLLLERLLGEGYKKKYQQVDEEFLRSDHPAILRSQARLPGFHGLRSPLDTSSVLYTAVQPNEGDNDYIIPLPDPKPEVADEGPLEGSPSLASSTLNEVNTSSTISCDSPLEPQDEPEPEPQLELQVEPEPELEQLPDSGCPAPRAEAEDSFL

[7] = target: kinases (KINOMEscan panel) (Homo sapiens, UniProt P49336); details: CDK8; Published KINOMEscan; ref original PKIS2 published data; cited from earlier work
Chain of kinases (KINOMEscan panel) (Homo sapiens, UniProt P49336) (P49336 whole entry): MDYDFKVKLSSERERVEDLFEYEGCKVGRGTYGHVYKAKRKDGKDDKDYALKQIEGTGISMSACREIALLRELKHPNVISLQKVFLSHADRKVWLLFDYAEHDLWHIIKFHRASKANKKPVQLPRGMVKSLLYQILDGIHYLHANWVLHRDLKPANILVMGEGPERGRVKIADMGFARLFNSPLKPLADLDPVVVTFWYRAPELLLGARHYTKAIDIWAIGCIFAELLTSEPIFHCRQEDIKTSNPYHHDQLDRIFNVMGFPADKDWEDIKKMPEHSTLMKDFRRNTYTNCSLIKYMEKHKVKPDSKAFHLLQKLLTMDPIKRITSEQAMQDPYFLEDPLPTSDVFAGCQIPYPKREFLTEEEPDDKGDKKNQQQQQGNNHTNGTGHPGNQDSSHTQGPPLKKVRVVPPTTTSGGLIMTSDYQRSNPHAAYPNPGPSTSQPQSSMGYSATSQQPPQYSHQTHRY

Chain of kinases (KINOMEscan panel) (Homo sapiens, UniProt P21802) (P21802 22-821): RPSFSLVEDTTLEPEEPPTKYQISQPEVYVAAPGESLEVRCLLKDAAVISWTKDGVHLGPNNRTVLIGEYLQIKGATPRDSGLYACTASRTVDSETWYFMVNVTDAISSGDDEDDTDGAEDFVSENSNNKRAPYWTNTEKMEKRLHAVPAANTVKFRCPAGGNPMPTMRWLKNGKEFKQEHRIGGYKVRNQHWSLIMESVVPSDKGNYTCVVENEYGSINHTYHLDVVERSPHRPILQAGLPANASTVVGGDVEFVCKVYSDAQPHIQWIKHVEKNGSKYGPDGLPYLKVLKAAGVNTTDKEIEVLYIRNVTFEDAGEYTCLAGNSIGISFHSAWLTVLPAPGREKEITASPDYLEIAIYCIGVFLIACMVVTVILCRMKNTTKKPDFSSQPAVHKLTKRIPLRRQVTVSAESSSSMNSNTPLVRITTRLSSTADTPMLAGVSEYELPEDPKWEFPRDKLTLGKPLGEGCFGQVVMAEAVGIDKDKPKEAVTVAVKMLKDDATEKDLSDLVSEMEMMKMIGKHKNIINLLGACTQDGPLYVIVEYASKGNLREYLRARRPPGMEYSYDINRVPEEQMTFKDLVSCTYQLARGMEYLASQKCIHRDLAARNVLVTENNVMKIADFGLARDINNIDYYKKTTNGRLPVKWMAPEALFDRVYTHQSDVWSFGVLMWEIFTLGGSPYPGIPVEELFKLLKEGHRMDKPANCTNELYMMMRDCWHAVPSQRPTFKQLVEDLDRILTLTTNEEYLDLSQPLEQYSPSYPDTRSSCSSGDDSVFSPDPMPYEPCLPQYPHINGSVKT

## Cc1cccc(-c2nc(Nc3ccncc3)c3ccccc3n2)n1 [NK215]
[1]
  KINOMEscan FGFR2: 7
[2]
  KINOMEscan NEK10: 0
[3]
  KINOMEscan CLK3: 31
[4]
  KINOMEscan TSSK1B: 0
[5]
  KINOMEscan STK16: 7
[6]
  KINOMEscan PDGFRB: 3
[7]
  KINOMEscan CDK8: 65
